Experimental data taken from PMC6631887, “In vitro and in vivo characterization of anti-malarial acylphenoxazine derivatives prepared from basic blue 3” (Malaria Journal, 2019).
Several values for one entry are separate records, joined by “and”; a condition that tells them apart may be missing. Identical values can stand only once. Like-named read-outs stand apart in the source and are kept apart here.

Key:
[1] = system: Plasmodium falciparum 3D7 (CQ- and PYR-sensitive); assay: In vitro anti-malarial efficacy (growth inhibition), XN-30 analyzer, 3D7 strain; type: cell-based; settings: read-out: IC50 3D7
[2] = system: Plasmodium falciparum W2 (CQ- and PYR-resistant); assay: In vitro anti-malarial efficacy (growth inhibition), XN-30 analyzer, W2 strain; type: cell-based; settings: read-out: IC50 W2
[3] = system: Plasmodium falciparum field isolate MRA-1239 (ART-sensitive); assay: In vitro anti-malarial efficacy (growth inhibition), XN-30 analyzer, MRA-1239 isolate; type: cell-based; settings: read-out: IC50 MRA-1239
[4] = system: Plasmodium falciparum field isolate MRA-1240 (ART-resistant); assay: In vitro anti-malarial efficacy (growth inhibition), XN-30 analyzer, MRA-1240 isolate; type: cell-based; settings: read-out: IC50 MRA-1240
[5] = Cytotoxic assay (Cell Counting Kit-8), HEK293T; type: cell-based; settings: human, HEK293T cells; 48 h culture, CCK-8; mean ± SEM, three experiments
Experimental: (§1) HepG2 (JCRB1054) and HEK293T cell lines were obtained from the Japanese Collection of Research Bioresources (JCRB, Osaka, Japan) and Prof. Yoshiharu Matsuura (Osaka University, Osaka, Japan), respectively. The cells were cultured in Dulbecco’s modified Eagle’s medium (DMEM (1.0 g/L glucose) with L-glutamine and sodium pyruvate; Nacalai Tesque, Kyoto, Japan) supplemented with 10% (v/v) fetal bovine serum (FBS; Gibco-BRL, Grand Island, NY, USA) in a humidified incubator with 5% CO2 at 37 °C. For the cytotoxic assay, the cells (5 × 10^3/well) were seeded in a 96-well plate. […] Cell viability was measured using a Cell Counting Kit-8 (Dojindo) according to the manufacturer’s instructions. Briefly, 10 µL CCK-8 reagent was added to each well containing culture medium and incubated for 2 h under standard culture conditions. The absorbance of the sample was measured at 450 nm using a PowerWave HT microplate spectrophotometer (BioTek Instruments, Winooski, VT, USA). The cell viability was expressed as a percentage of the absorbance of the untreated control cells after subtracting the appropriate background intensity. The CC50 (mean ± SEM) was calculated as described in IC50. The SI, which is the ratio between the cytotoxicity and anti-malarial activity, was calculated according to the following equation. SI=mean CC50/mean IC50.

[6] = Cytotoxic assay (Cell Counting Kit-8), HepG2; type: cell-based; settings: human, HepG2 cells; 48 h culture, CCK-8; mean ± SEM, three experiments
Experimental: as §1

Plasmodium berghei NK65 = assay: In vivo anti-malarial activity, rodent malaria model, oral administration; set-up: species or system Plasmodium berghei (in ICR mice); settings: for MSD (mean survival day) / % suppression on day 4: mice; for MSD (mean survival day): observed to day 30; for % suppression on day 4: repeated for 3 consecutive days, parasitaemia vs control
Experimental: The in vivo anti-malarial efficacy of ITT-001 to 006 was evaluated using the rodent malaria parasite P. berghei NK65 as described by Fidock et al., with some modifications. The parasite was maintained by syringe passage every week in female ICR mice (4–8-week-old; body weight, 25–27 g, Sankyo Lab Service, Tokyo, Japan). On day 0, a 200 µL aliquot of saline containing 2 × 10^7 iRBCs prepared from the pre-infected mice was injected intravenously into the mice. After 4 h, basic blue 3 and ITT-001 to 006 dissolved or suspended in 5% (w/v) methyl cellulose 400 solution (FUJIFILM Wako Pure Chemical, Osaka, Japan) were orally administered (100 mg/kg body weight of basic blue 3 and ITT-001 to 006 and 50 mg/kg body weight of ITT-004) to the mice (four and five groups for basic blue 3 and ITT-001 to 006, respectively). The control group (five mice/group) was treated with approximately 100 µL of the vehicle. This treatment was repeated for 3 consecutive days. On day 4, peripheral blood samples were obtained from the tail veins of the mice and thin blood smears stained with Diff-Quik stain kit (Sysmex) were observed under a Leica DM6000B microscope (Leica Microsystems, Wetzlar, Germany). Parasitaemia was determined by counting over 10 fields of view. The suppression rate (%) was calculated as the difference in parasitaemia between the test and control groups. The mean survival day (MSD) was calculated from the number of the surviving mice on day 30. The surviving mice were cured on day 30. Kaplan–Meier curves were generated to graphically display the efficacy using GraphPad Prism version 5.0.

[7] = system: Plasmodium falciparum 3D7 (ring-form-synchronized); assay: Characterization of anti-malarial activity in vitro, 24 h treatment, XN-30 analyzer and light microscopy; type: cell-based; settings: 3D7, 24 h treatment; for concentration at which parasites were arrested or killed with the ring-form: XN-30 analyzer (Fig. 2i); for concentration at which trophozoites appeared: XN-30 analyzer (Fig. 2ii)
Experimental: The ring-form-synchronized parasite (3D7 strain) was treated with the indicated concentrations of basic blue 3 and ITT-001 to 006 for 24 h for flow cytometric and morphological analyses using an automated haematology analyzer, XN-30, and light microscope, respectively.
For the flow cytometric analysis, the XN30 analyzer was equipped with a prototype algorithm for cultured P. falciparum [prototype; software version: 01-03, (build 16)] and specific reagents were used ([…] DCL, SULFOLYSER, Lysercell M, and Fluorocell M) (Sysmex, Kobe, Japan). Approximately 100 µL of the culture suspension diluted with 100 µL phosphate-buffered saline was added into a BD Microtainer MAP Microtube for Automated Process K2 EDTA 1.0 mg tube (Becton–Dickinson and Co., Franklin Lakes, NJ, USA) and loaded onto the XN-30 analyzer with an auto-sampler as described in the instrument’s manual (Sysmex). […] Horizontal and vertical axes represent the intensities of side fluorescent light (SFL, which corresponds to DNA content) and forward scattered light (FSC, indicating iRBC size), respectively. Colours indicate the following based on the default setting: red, ring-form; orange, trophozoite; purple, schizont; and blue, polychromatic RBC. Once parasites replicate DNA, dots are plotted to the right side on the M scattergram according to the increase in DNA content. The parasitaemias (total, MI-RBC%; ring-form, RNG-RBC%; trophozoite, TRPZ-RBC%; and schizont, SCHZ-RBC%) were automatically reported.
A standard thin blood smear was fixed with 100% methanol for 10 min and stained with 10% Giemsa working solution, pH 7.2 (Merck KGaA, Darmstadt, Germany) for 13 min.

[8] = Measurement of fluorescence spectrum (self-fluorescence); type: physicochemical; settings: 10 µM in saline containing 1% DMSO, excitation 592 nm, emission 630-730 nm
Experimental: Fluorescence spectrum of basic blue 3 and ITT-001 to 006 (10 µM) was obtained in saline containing 1% DMSO at room temperature. The compounds were excited at 592 nm (bandpass width, 5 nm) and their emission spectra, 630 nm to 730 nm, were measured with a RF-5300PC Spectro fluorophotometer (Shimadzu).

[9] = Plasmodium falciparum, 3D7, 48 h, 48 h treatment, ring-form-synchronized, XN-30 analyzer, mean ± SEM, three experiments
[10] = Plasmodium falciparum, W2, 48 h, 48 h treatment, ring-form-synchronized, XN-30 analyzer, mean ± SEM, three experiments
[11] = 48 h treatment, ring-form-synchronized, XN-30 analyzer, mean ± SEM, three experiments
[12] = oral 100 mg/kg, surviving mice considered cured

| SMILES | IC50 [1, 9] [µM] | IC50 [2, 10] [µM] | IC50 [3, 11] [µM] | IC50 [4, 11] [µM] | CC50 at 48 h [5] [µM] | CC50 at 48 h [6] [µM] | MSD (mean survival day) (Plasmodium berghei NK65; oral 100 mg/kg) [days] | % suppression on day 4 (Plasmodium berghei NK65; oral 100 mg/kg) [%] | # of survived mice on day 30 (Plasmodium berghei NK65; [12]) | maximum fluorescence intensity [8] | also measured |
| --- | --- | --- | --- | --- | --- | --- | --- | --- | --- | --- | --- |
| CCN(CC)c1ccc2c(c1)Oc1cc(N(CC)CC)ccc1N2C(=O)C(C)(C)C [ITT-002, 1-(3,7-Bis(diethylamino)-10H-phenoxazin-10-yl)-2,2-dimethylpropan-1-one] | 0.0107 ± 0.0015 | 0.0104 ± 0.0028 | 0.0207 ± 0.0016 | 0.0244 ± 0.0037 | 0.2 ± 0.021 | > 50 | 19.2 | > 99 | 2/5 | – | – |
| C[C@@H]1CC[C@H]2[C@@H](C)C(=O)O[C@@H]3O[C@@]4(C)CC[C@@H]1[C@]32OO4 [ART, artemisinin, reference compound] | – | – | 0.0055 ± 1.8e-05 | 0.0132 ± 0.0014 | – | – | – | – | – | – | – |
| CCN(CC)CC(=O)N1c2ccc(N(CC)CC)cc2Oc2cc(N(CC)CC)ccc21.Cl [ITT-005, 1-(3,7-Bis(diethylamino)-10H-phenoxazin-10-yl)-2-(diethylamino)ethanone hydrochloride] | – | – | 0.13 ± 0.0093 | 0.184 ± 0.0301 | 0.73 ± 0.093 | 4.6 ± 0.26 | 14.0 | > 99 | 1/5 | – | concentration at which parasites were arrested or killed with the ring-form [7]: 5000 nM; concentration at which trophozoites appeared [7]: 150 nM |
| CCN(CC)c1ccc2c(c1)Oc1cc(N(CC)CC)ccc1N2C(=O)C1CC1 [ITT-003] | 0.0098 ± 0.001 | 0.0096 ± 0.0021 | 0.0249 ± 0.0031 | 0.0313 ± 0.0098 | 9.2 ± 3.8 | > 50 | 21.0 | > 99 | 2/5 | – | – |
| CCN(CC)c1ccc2c(c1)Oc1cc(N(CC)CC)ccc1N2C(C)=O [ITT-001, 1-(3,7-Bis(diethylamino)-10H-phenoxazin-10-yl)ethanone] | 0.0112 ± 0.0013 | 0.0111 ± 0.0018 | 0.0346 ± 0.0091 | 0.039 ± 0.0112 | 0.32 ± 0.042 | 4 ± 0.85 | 20.4 | > 99 | 3/5 | – | – |
| CCN(CC)c1ccc2c(c1)Oc1cc(N(CC)CC)ccc1N2C(=O)c1ccccc1 [ITT-004, (3,7-Bis(diethylamino)-10H-phenoxazin-10-yl)(phenyl)methanone] | 0.0113 ± 0.0024 | 0.0123 ± 0.0027 | 0.0264 ± 0.0029 | 0.0305 ± 0.002 | 10.5 ± 3.4 | > 50 | 29.4 | > 99 | – | less than 3 a.u. | MSD (mean survival day) (Plasmodium berghei NK65; oral 50 mg/kg): 11.8 days; % suppression on day 4 (Plasmodium berghei NK65; oral 50 mg/kg): > 99%; # of survived mice on day 30 (Plasmodium berghei NK65; oral 50 mg/kg): 0/5; # of survived mice on day 30 (Plasmodium berghei NK65; oral 100 mg/kg, surviving mice considered cured, 100 mg/kg): four of five and 4 out of 5 and 4/5 |
| CCN(CC)c1ccc2c(c1)Oc1cc(N(CC)CC)ccc1N2C(=O)c1ccc(F)cc1 [ITT-006, (3,7-Bis(diethylamino)-10H-phenoxazin-10-yl)(4-fluorophenyl)methanone] | 0.0106 ± 0.0016 | 0.016 ± 0.0045 | 0.0275 ± 0.0034 | 0.0294 ± 0.0058 | 13.6 ± 3 | > 50 | 13.0 | 91.5 | 0/5 | less than 3 a.u. | – |
| CCN(CC)c1ccc2nc3ccc(=[N+](CC)CC)cc-3oc2c1 [basic blue 3] | ~0.004 | ~0.004 | 0.0052 ± 0.0011 | 0.0059 ± 0.00068 | 0.021 ± 0.0042 | 1 ± 0.064 | 20.3 | > 99 | 1/4 | 775 a.u. | IC50 [1, 11]: 0.0032 ± 0.00019 µM; IC50 [2, 11]: 0.0048 ± 0.00053 µM; concentration at which parasites were arrested or killed with the ring-form [7]: 15 nM; concentration at which trophozoites appeared [7]: 0.5 nM |
| CCN(CC)CCCC(C)Nc1ccnc2cc(Cl)ccc12 (stereo not shown) [CQ, chloroquine, reference compound] | – | – | – | – | – | – | – | – | – | – | IC50 ([1]; Plasmodium falciparum, 3D7, 48 h): 0.0086 ± 0.00021 µM; IC50 ([2]; Plasmodium falciparum, W2, 48 h): 0.225 ± 0.0232 µM; IC50 ([3]; 48 h): 0.0386 ± 0.0052 µM; IC50 ([4]; 48 h): 0.058 ± 0.0026 µM |
